Consider one molecule from paper PMC2712759, “Hsp70 Chaperones and Type I PRMTs Are Sequestered at Intranuclear Inclusions Caused by Polyalanine Expansions in PABPN1” (PLoS ONE, 2009).

SMILES strings stand for the structures.

The target in assay [1] is T1, PABPN1 (Homo sapiens, UniProt Q86U42).
T1 construct: recombinant full-length (306 aa for normal PABPN1, 10-Ala tract, N-terminus M-(A)10-GAAGGRG); details in supplement S1
T1 sequence (Q86U42 1-306): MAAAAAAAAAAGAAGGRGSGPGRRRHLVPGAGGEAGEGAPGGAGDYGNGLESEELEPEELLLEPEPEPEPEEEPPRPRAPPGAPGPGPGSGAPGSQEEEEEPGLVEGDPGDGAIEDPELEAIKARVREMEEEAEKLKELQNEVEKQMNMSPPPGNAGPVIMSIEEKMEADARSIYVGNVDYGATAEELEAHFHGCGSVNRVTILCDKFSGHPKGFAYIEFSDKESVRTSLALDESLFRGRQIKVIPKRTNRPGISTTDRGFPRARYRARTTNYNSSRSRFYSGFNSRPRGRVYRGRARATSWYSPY
Nature of the assay: ANS fluorescence titration. In kind it is binding.

The target of assay [2] is T2, PABPN1 (Homo sapiens, UniProt Q86U42, INS11AAAAAAA).
T2 construct: recombinant full-length (306 aa for normal PABPN1, 10-Ala tract, N-terminus M-(A)10-GAAGGRG); details in supplement S1
T2 sequence (Q86U42 with tags, fused parts or gaps INS11AAAAAAA): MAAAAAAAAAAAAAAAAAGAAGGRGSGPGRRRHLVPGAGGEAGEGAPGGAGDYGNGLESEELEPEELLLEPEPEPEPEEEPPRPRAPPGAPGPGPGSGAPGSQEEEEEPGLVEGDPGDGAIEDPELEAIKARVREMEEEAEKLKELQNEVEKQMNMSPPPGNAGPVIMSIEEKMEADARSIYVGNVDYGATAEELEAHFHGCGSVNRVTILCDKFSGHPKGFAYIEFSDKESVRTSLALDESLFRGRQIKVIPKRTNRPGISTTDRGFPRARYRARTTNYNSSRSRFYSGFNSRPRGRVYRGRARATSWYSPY
Nature of the assay: ANS fluorescence titration. In kind it is binding.

With `O=S(=O)(O)c1cccc2cccc(Nc3ccccc3)c12` [1-Anilino naphthalene-8-sulfonic acid], the dissociation constant (Kd) on PABPN1 [1] worked out at 75 µM; at PABPN1 [2], 42 µM.
